Values after ≈ are worked out from the molar mass of the structure shown. Marks after values point to notes of the source that are not given here.
Experiments:
[1] = eLogD shake-flask method; assay type: physicochemical
Source text: (§1) Human liver microsome stability, rat hepatocyte stability, aqueous solubility and eLogD are platform assays conducted by TCG Lifesciences and undertaken using previously described protocols.[10]

[2] = Human liver microsome stability; assay type: in vitro ADME; conditions: human liver microsomes; for microsomal CLint: read-out: HLM CLint
Source text: as §1

[3] = Rat hepatocyte stability; assay type: in vitro ADME; conditions: rat hepatocytes; for hepatocyte CLint: read-out: Rat Hep CLint
Source text: as §1

[4] = Aqueous solubility (pH 7.4); assay type: physicochemical
Source text: as §1

[5] = system: P. falciparum (Pf) 3D7 parasites; assay: P. falciparum LDH viability assay; assay type: cell-based; conditions: Plasmodium falciparum, 3D7, 72 h, LDH activity at 72 h; mean and SD of 3 independent experiments
Source text: This assay is a platform assay conducted at the Walter and Eliza Hall Institute and uses a protocol previously decsribed.[30, 31]

[6] = Human HepG2 cytotoxicity assay (Cell Titre Glo); assay type: cell-based; conditions: HepG2 cells, growth inhibition at 48 h, 4 replicate experiments, read-out: HepG2 CC50 (SD)
Source text: This assay uses Cell TitreGlo as a metabolic maker for human HepG2 cell growth and uses a protocol previously described.[32]

[7] = aqueous medium (pH 7.4; buffer not named), pH 7.4, aqueous buffer
[8] = aqueous medium at pH 7.4 (buffer not named), pH 7.4, aqueous buffer
[9] = aqueous medium at pH 7.4, pH 7.4, aqueous buffer

Row | Molecule | eLogD [1] | EC50 [5] [nM] | microsomal CLint [2] [µL/min/mg] | hepatocyte CLint [3] [µL/min/1e6 cells] | CC50 at 48 h [6] [nM] | also measured
1 | 7‐Chloro‐N‐(5‐chloropyridin‐3‐yl)‐3‐methyl‐2‐(3‐(4‐methylpiperazin‐1‐yl)‐3‐oxopropyl)‐4‐oxo‐1,2,3,4‐tetrahydroquinazoline‐2‐carboxamide [Compound 23] | 2.8^[d] | – | – | – | – | HLM CLint [2]: 155 µL/min/mg; Rat Hep CLint [3]: 16 μL/min/10^6 cells; solubility ([4]; pH 7.4): 9.6 µM
2 | 7‐Chloro‐N‐(5‐chloropyridin‐3‐yl)‐3‐methyl‐2‐(3‐morpholino‐3‐oxopropyl)‐4‐oxo‐1,2,3,4‐tetrahydroquinazoline‐2‐carboxamide [Compound 21] | – | – | – | – | – | HLM CLint [2]: 95 µL/min/mg; Rat Hep CLint [3]: 23 μL/min/10^6 cells; solubility ([4]; pH 7.4): 41 µM
3 | 7‐Chloro‐N‐(5‐chloropyridin‐3‐yl)‐3‐methyl‐4‐oxo‐2‐(3‐oxo‐3‐(piperazin‐1‐yl)propyl)‐1,2,3,4‐tetrahydroquinazoline‐2‐carboxamide [Compound 22] | 1.7^[d] | – | – | – | – | HLM CLint [2]: 94 µL/min/mg; Rat Hep CLint [3]: 7.7 μL/min/10^6 cells; solubility ([4]; pH 7.4): 178 µM
4 | CN1C(=O)c2ccc(Cl)cc2N2CCCC12C(=O)Nc1cccc(Cl)c1 (centres unmarked) [Compound 18, 8‐Chloro‐N‐(3‐chlorophenyl)‐4‐methyl‐5‐oxo‐2,3,4,5‐tetrahydropyrrolo[1,2‐a]quinazoline‐3a(1H)‐carboxamide] | – | 30 | – | – | > 40000 | –
5 | CN1C(=O)c2ccc(Cl)cc2NC1C(=O)Nc1cccc(Cl)c1 (centres unmarked) [Compound 19, 7‐Chloro‐N‐(3‐chlorophenyl)‐3‐methyl‐4‐oxo‐1,2,3,4‐tetrahydroquinazoline‐2‐carboxamide] | – | 80 | – | – | > 40000 | –
6 | CN1C(=O)c2ccc3cccnc3c2NC1(C)C(=O)Nc1cncc(Cl)c1 (centres unmarked) [Compound 25, N‐(5‐Chloropyridin‐3‐yl)‐2,3‐dimethyl‐4‐oxo‐1,2,3,4‐tetrahydropyrido[3,2‐h]quinazoline‐2‐carboxamide] | – | 220 | – | – | > 40000 | –
7 | CN1C(=O)c2ccc3ncccc3c2NC1(C)C(=O)Nc1cncc(Cl)c1 (centres unmarked) [Compound 26, N‐(5‐Chloropyridin‐3‐yl)‐2,3‐dimethyl‐4‐oxo‐1,2,3,4‐tetrahydropyrido[2,3‐h]quinazoline‐2‐carboxamide] | – | 90 | – | – | > 40000 | –
8 | CC1(C(=O)Nc2cncc(Cl)c2)Nc2cc(Cl)ccc2-c2nccn21 (centres unmarked) [Compound 27, 8‐Chloro‐N‐(5‐chloropyridin‐3‐yl)‐5‐methyl‐5,6‐dihydroimidazo[1,2‐c]quinazoline‐5‐carboxamide] | – | 54 | 110 | 59 | > 40000 | logD [1]: 2.7; solubility [4, 8]: 84 µM (≈ 31.4 µg/mL)
9 | CC1(C(=O)Nc2cncc(Cl)c2)Nc2cc(Cl)ccc2C2=NCCN21 (centres unmarked) [Compound 28, 8‐Chloro‐N‐(5‐chloropyridin‐3‐yl)‐5‐methyl‐2,3,5,6‐tetrahydroimidazo[1,2‐c]quinazoline‐5‐carboxamide] | – | – | 37 | 8.8 | – | logD [1]: 2.5; solubility [4, 8]: > 200 µM
10 | CN1C(=O)c2ccc(-c3cccnc3)cc2NC1(C)C(=O)Nc1cncc(Cl)c1 (centres unmarked) [Compound 29, N‐(5‐Chloropyridin‐3‐yl)‐2,3‐dimethyl‐4‐oxo‐7‐(pyridin‐3‐yl)‐1,2,3,4‐tetrahydroquinazoline‐2‐carboxamide] | – | 148 | – | – | > 40000 | –
11 | COc1ccc(-c2ccc3c(c2)NC(C)(C(=O)Nc2cncc(Cl)c2)N(C)C3=O)cn1 (centres unmarked) [Compound 30, N‐(5‐Chloropyridin‐3‐yl)‐7‐(6‐methoxypyridin‐3‐yl)‐2,3‐dimethyl‐4‐oxo‐1,2,3,4‐tetrahydroquinazoline‐2‐carboxamide] | – | 143 | – | – | > 40000 | –
12 | COc1cnc2c(c1)NC(C)(C(=O)Nc1cncc(Cl)c1)N(C)C2=O (centres unmarked) [Compound 35, N‐(5‐Chloropyridin‐3‐yl)‐7‐methoxy‐2,3‐dimethyl‐4‐oxo‐1,2,3,4‐tetrahydropyrido[3,2‐d]pyrimidine‐2‐carboxamide] | – | 458 | – | – | > 40000 | –

Now from value to molecule, other results behind:

Row | eLogD [1] | EC50 [5] [nM] | microsomal CLint [2] [µL/min/mg] | hepatocyte CLint [3] [µL/min/1e6 cells] | Molecule | CC50 at 48 h [6] [nM] | also measured
13 | 3.9^[d] | 115 | 122 | 124 | CN1C(=O)c2ccc(Cl)cc2N(C)C1(C)C(=O)Nc1cccc(Cl)c1 (centres unmarked) [Compound 12, 7‐Chloro‐N‐(3‐chlorophenyl)‐1,2,3‐trimethyl‐4‐oxo‐1,2,3,4‐tetrahydroquinazoline‐2‐carboxamide] | > 40000 | solubility [4, 7]: 2.6 µM (≈ 0.983 µg/mL); solubility [4, 8]: < 5.2 µM
14 | – | 53 | – | – | CCN1c2cc(Cl)ccc2C(=O)N(C)C1(C)C(=O)Nc1cccc(Cl)c1 (centres unmarked) [Compound 13, 7‐Chloro‐N‐(3‐chlorophenyl)‐1‐ethyl‐2,3‐dimethyl‐4‐oxo‐1,2,3,4‐tetrahydroquinazoline‐2‐carboxamide] | > 40000 | –
15 | – | 47 | – | – | CN1C(=O)c2ccc(Cl)cc2N(C)C1(C)C(=O)Nc1cncc(Cl)c1 (centres unmarked) [Compound 15, 7‐Chloro‐N‐(5‐chloropyridin‐3‐yl)‐1,2,3‐trimethyl‐4‐oxo‐1,2,3,4‐tetrahydroquinazoline‐2‐carboxamide] | > 40000 | –
16 | 3.3^[d] | 27 | 172 | 33 | CC1(C(=O)Nc2cncc(Cl)c2)Nc2cc(Cl)ccc2C(=O)N1C1CC1 (centres unmarked) [Compound 16, 7‐Chloro‐N‐(5‐chloropyridin‐3‐yl)‐3‐cyclopropyl‐2‐methyl‐4‐oxo‐1,2,3,4‐tetrahydroquinazoline‐2‐carboxamide] | > 40000 | solubility [4, 7]: 7 µM (≈ 2.74 µg/mL)
17 | 3.2^[d] | 23 | 267 | 47 | CN1c2cc(Cl)ccc2C(=O)N(C2CC2)C1(C)C(=O)Nc1cncc(Cl)c1 (centres unmarked) [Compound 17, 7‐Chloro‐N‐(5‐chloropyridin‐3‐yl)‐3‐cyclopropyl‐1,2‐dimethyl‐4‐oxo‐1,2,3,4‐tetrahydroquinazoline‐2‐carboxamide] | > 40000 | solubility [4, 7]: 28 µM (≈ 11.3 µg/mL)
18 | – | 808 | – | – | CN1C(=O)c2ccc(-c3ccn(C)n3)cc2NC1(C)C(=O)Nc1cncc(Cl)c1 (centres unmarked) [Compound 31, N‐(5‐Chloropyridin‐3‐yl)‐2,3‐dimethyl‐7‐(1‐methyl‐1H‐pyrazol‐3‐yl)‐4‐oxo‐1,2,3,4‐tetrahydroquinazoline‐2‐carboxamide] | > 40000 | –
19 | 2.9^[d] | 198 | 34 | 5 | CN1C(=O)c2ccc(-c3cnn(C)c3)cc2NC1(C)C(=O)Nc1cncc(Cl)c1 (centres unmarked) [Compound 32, N‐(5‐Chloropyridin‐3‐yl)‐2,3‐dimethyl‐7‐(1‐methyl‐1H‐pyrazol‐4‐yl)‐4‐oxo‐1,2,3,4‐tetrahydroquinazoline‐2‐carboxamide] | > 40000 | solubility [4, 9]: 7 µM (≈ 2.88 µg/mL)
20 | – | 74 | 35 | 16 | COc1ccc2c(c1)NC(C)(C(=O)Nc1cncc(Cl)c1)N(C)C2=O (centres unmarked) [Compound 34, N‐(5‐Chloropyridin‐3‐yl)‐7‐methoxy‐2,3‐dimethyl‐4‐oxo‐1,2,3,4‐tetrahydroquinazoline‐2‐carboxamide] | – | logD [1]: 2.7; solubility [4, 9]: 13.5 µM (≈ 4.87 µg/mL)

From paper PMC11648822, “Lactam Truncation Yields a Dihydroquinazolinone Scaffold with Potent Antimalarial Activity that Targets PfATP4” (Chemmedchem, 2024)
